Test results taken from patent publication US20240327463A1, “ANTIBACTERIAL PRODUCTS” (priority 2017, published 2024).
≈ marks a conversion by molar mass, not a printed value. Read-outs that look alike come from different tables or passages of the source.

How the values were obtained:
MRSA ATCC 33591 = system: MRSA ATCC 33591
Protocol: (§1) For MIC testing all peptides were dissolved in DMSO (according to the method of L. L. Ling, et al., Nature 2015, 517, 455-459). Bacteria were grown on Mueller Hinton broth (oxoid). All incubations were at 37° C. Dilutions were carried out using Mueller Hinton. 100 μl of autoclaved Mueller Hinton broth was added to wells 2-12 on a 96-well plate. 200 μl of the peptide was added to well one at a concentration of 512 μg/ml. 100 μl of peptide in well one was taken up and pipetted into well two. The mixture was then mixed via pipetting before 100 μl was taken up and pipetted into well three. This process was repeated up to well 11. […] This was repeated three times. The 96-well plates were then incubated for 24 hours. The MIC was determined to be the lowest concentration at which there was no growth visible.

M. smegmatis ATCC 607 = assay: microbe, parasite or virus in culture
Protocol: as §1

MRSA ATCC 700699 = assay: microbe, parasite or virus in culture
Protocol: as §1

MRSA DM21455 (eye) = assay: microbe, parasite or virus in culture
Protocol: as §1

MRSA DR 42412 (sputum) = assay: microbe, parasite or virus in culture
Protocol: as §1

[1] = system: Staphylococcus aureus ATCC 29213; assay: microbe, parasite or virus in culture
Protocol: as §1

VRE ATCC 29212 = assay: microbe, parasite or virus in culture
Protocol: as §1

VRE ATCC 700802 = assay: microbe, parasite or virus in culture
Protocol: as §1

[2] = system: Bacillus Cereus ATCC 11788; format: cell-based
Protocol: (§2) Bacteria were grown on Mueller Hinton broth (oxoid). All incubations were at 37° C. Dilutions were carried out using Mueller Hinton. […] This process was repeated up to well 11. […] This was repeated three times. […] Results are tabulated in the Examples.

[3] = system: Bacillus Subtilis ATCC 6633; format: cell-based
Protocol: as §2

SE12228 = format: cell-based
Protocol: as §2

[4] = system: Staphylococcus saprophyticus ATCC 15305; format: cell-based; details: ATCC 15305
Protocol: as §2

[5] = system: Staphylococcus saprophyticus ATCC 49453; format: cell-based; details: ATCC 49453
Protocol: as §2

[6] = system: Staphylococcus saprophyticus ATCC 49907; format: cell-based; details: ATCC 49907
Protocol: as §2

[7] = system: Staphylococcus saprophyticus ATCC BAA 750; format: cell-based; details: ATCC BAA 750
Protocol: as §2

MRSA 1003 = format: cell-based, Staphylococcus aureus
Protocol: as §2

VRE 1001 = format: cell-based, Enterococcus faecalis
Protocol: as §2

VRE 1002 = format: cell-based, Enterococcus faecalis
Protocol: as §2

VRE 1004 = format: cell-based, Enterococcus faecalis
Protocol: as §2

VRE 1008 = format: cell-based, Enterococcus faecalis
Protocol: as §2

S. aureus ATCC 29213 = assay: Mice-eye model of S. aureus keratitis; format: in vivo; details: for mean corneal thickness: 0.3% topical, baseline 93.8±2.9 μm
Excerpt: The in vivo efficacy of Compound 26 in the mice-eye model of S. aureus keratitis was examined. S. aureus is one of the major etiological agents for bacterial keratitis and the toxic secretions produced by this microorganism have been implicated in corneal melt, leading to significant morbidity and vision loss. […] A total of 8 doses were applied and the progression of the infection was monitored by slit lamp examination, anterior segment optical coherent tomography (AS-OCT) and microbiological enumeration of the bacterial bioburden. Mice cornea treated with PBS had severe clinical presentation indicated by chemosis, significant presence of hypopyon like materials and corneal infiltrates (FIG. 4).

[8] = Staphylococcus aureus ATCC 29213, Table 4B

Compound	MIC (MRSA*) (MRSA ATCC 33591; ATCC 33591) [µg/mL]	MIC (M. smegmatis ATCC 607; ATCC 607) [µg/mL]	MIC (MRSA ATCC 700699; ATCC 700699) [µg/mL]	MIC (MRSA DM21455 (eye); DM21455 (eye)) [µg/mL]	MIC (MRSA DR 42412 (sputum); DR 42412 (sputum)) [µg/mL]	MIC ([1]; ATCC 29213) [µg/mL]	MIC (VRE ATCC 29212; ATCC 29212) [µg/mL]	MIC (VRE ATCC 700802; ATCC 700802) [µg/mL]	MBC (MRSA ATCC 700699; ATCC 700699) [µg/mL]	MBC (MRSA DM21455 (eye); DM21455 (eye)) [µg/mL]	MBC (MRSA DR 42412 (sputum); DR 42412 (sputum)) [µg/mL]	MBC ([1]; ATCC 29213) [µg/mL]	further results
CC[C@H](C)[C@H](NC(=O)[C@@H](Cc1ccccc1)NC)C(=O)N[C@@H](CO)C(=O)N[C@H](CCC(N)=O)C(=O)N[C@@H](C(=O)N[C@H](C(=O)N[C@@H](CO)C(=O)N[C@H]1C(=O)N[C@@H](C)C(=O)N[C@@H](CCCNC(=N)N)C(=O)N[C@@H]([C@@H](C)CC)C(=O)O[C@H]1C)[C@@H](C)CC)[C@@H](C)CC [Compound 6, Arg10-teixobactin, reference compound]	–	–	–	–	–	–	–	–	–	–	–	–	MIC (MRSA*) (MRSA ATCC 33591; MRSA ATCC 33591, Table 4A): 2 µg/mL (≈ 1.61 µM); MIC (M. smegmatis ATCC 607; M. smegmatis ATCC 607, Table 4B): 1 to 2 µg/mL; MIC (MRSA ATCC 700699; MRSA 1: MRSA ATCC 700699, Mueller Hinton Broth, Table 4B): 1 µg/mL (≈ 0.804 µM); MBC (MRSA ATCC 700699; MRSA 1: MRSA ATCC 700699, Table 4B): 2 µg/mL (≈ 1.61 µM); MIC (MRSA DM21455 (eye); MRSA 3: MRSA DM21455 (eye), clinical isolate, Table 4B): 0.5 µg/mL (≈ 0.402 µM); MBC (MRSA DM21455 (eye); MRSA 3: MRSA DM21455 (eye), Table 4B): 1 µg/mL (≈ 0.804 µM); MBC (MRSA DR 42412 (sputum); MRSA 2: MRSA DR 42412 (sputum), Table 4B): 0.5 µg/mL (≈ 0.402 µM); MBC [1, 8]: 1 µg/mL (≈ 0.804 µM); MIC [1, 8]: 0.25 µg/mL (≈ 0.201 µM); MIC (VRE ATCC 29212; VRE 2: VRE ATCC 29212, Table 4B): 2 µg/mL (≈ 1.61 µM); MIC (VRE ATCC 700802; VRE 1: VRE ATCC 700802, Table 4B): 2 µg/mL (≈ 1.61 µM)
CCC(C)[C@@H]1NC(=O)[C@H](C)NC(=O)[C@H](NC(=O)[C@H](CO)NC(=O)[C@@H](NC(=O)[C@H](NC(=O)[C@@H](CCCNC(=N)N)NC(=O)[C@H](CO)NC(=O)[C@@H](NC(=O)[C@@H](Cc2ccccc2)NC)[C@@H](C)CC)[C@H](C)CC)[C@@H](C)CC)[C@H](C)OC(=O)[C@H]([C@@H](C)CC)NC1=O (stereo partly drawn) [Compound 33, D-Arg4-Ile10-teixobactin]	–	–	0.25 (≈ 0.203 µM)	0.03125 (≈ 0.0254 µM)	<0.0625	0.0625 (≈ 0.0508 µM)	0.25 (≈ 0.203 µM)	0.25 (≈ 0.203 µM)	–	–	–	–	MIC (MRSA) (MRSA ATCC 33591; ATCC 33591): 0.125 µg/mL (≈ 0.102 µM); MIC [2]: <0.0625 µg/mL; MIC [3]: <0.0625 µg/mL; MIC (SE12228): <0.0625 µg/mL; MIC [4]: <0.0625 µg/mL; MIC [5]: <0.0625 µg/mL; MIC [6]: <0.0625 µg/mL; MIC [7]: <0.0625 µg/mL; MIC (MRSA 1003): <0.0625 µg/mL; MIC (VRE 1001): 0.5 µg/mL (≈ 0.407 µM); MIC (VRE 1002): 1 µg/mL (≈ 0.813 µM); MIC (VRE 1004): 0.5 µg/mL (≈ 0.407 µM); MIC (VRE 1008): 0.5 µg/mL (≈ 0.407 µM)
COc1c(N2C[C@@H]3CCCN[C@@H]3C2)c(F)cc2c(=O)c(C(=O)O)cn(C3CC3)c12 [moxifloxacin, reference compound]	–	–	–	–	–	–	–	–	–	–	–	–	mean corneal thickness (S. aureus ATCC 29213; 24 h post treatment): 124.2±9.4 μm; mean corneal thickness (S. aureus ATCC 29213; 48 h post treatment): 140.3±10.3 μm; mean log10 CFU/tissue (S. aureus ATCC 29213; corneal tissues harvested after 8 dosages, ± standard error of the mean): 3.7±0.24 log10 CFU/tissue

The next lines start with results.

MIC (MRSA*) (MRSA ATCC 33591; ATCC 33591) [µg/mL]	MIC (M. smegmatis ATCC 607; ATCC 607) [µg/mL]	MIC (MRSA ATCC 700699; ATCC 700699) [µg/mL]	MIC (MRSA DM21455 (eye); DM21455 (eye)) [µg/mL]	MIC (MRSA DR 42412 (sputum); DR 42412 (sputum)) [µg/mL]	MIC ([1]; ATCC 29213) [µg/mL]	MIC (VRE ATCC 29212; ATCC 29212) [µg/mL]	MIC (VRE ATCC 700802; ATCC 700802) [µg/mL]	Compound	MBC (MRSA ATCC 700699; ATCC 700699) [µg/mL]	MBC (MRSA DM21455 (eye); DM21455 (eye)) [µg/mL]	MBC (MRSA DR 42412 (sputum); DR 42412 (sputum)) [µg/mL]	MBC ([1]; ATCC 29213) [µg/mL]	further results
0.5 (≈ 0.421 µM)	1 (≈ 0.842 µM)	1 (≈ 0.842 µM)	0.25 (≈ 0.211 µM)	0.5 (≈ 0.421 µM)	0.25 (≈ 0.211 µM)	0.5 (≈ 0.421 µM)	0.5 (≈ 0.421 µM)	CC[C@@H](C)[C@@H](NC(=O)[C@@H](CCC(N)=O)NC(=O)[C@H](CO)NC(=O)[C@@H](NC(=O)[C@@H](Cc1ccccc1)NC)[C@@H](C)CC)C(=O)N[C@H](C(=O)N[C@@H](CO)C(=O)N[C@H]1C(=O)N[C@@H](C)C(=O)N[C@@H](C(C)C)C(=O)N[C@@H]([C@@H](C)CC)C(=O)O[C@H]1C)[C@@H](C)CC [Compound 17]	4 (≈ 3.37 µM)	2 (≈ 1.68 µM)	4 (≈ 3.37 µM)	1 (≈ 0.842 µM)	–
0.25 (≈ 0.208 µM)	0.5 (≈ 0.416 µM)	0.25 (≈ 0.208 µM)	≤0.0625	≤0.0625	≤0.0625	≤0.0625	≤0.0625	CC[C@@H](C)[C@@H](NC(=O)[C@@H](CCC(N)=O)NC(=O)[C@H](CO)NC(=O)[C@@H](NC(=O)[C@@H](Cc1ccccc1)NC)[C@@H](C)CC)C(=O)N[C@H](C(=O)N[C@@H](CO)C(=O)N[C@H]1C(=O)N[C@@H](C)C(=O)N[C@@H]([C@@H](C)CC)C(=O)N[C@@H]([C@@H](C)CC)C(=O)O[C@H]1C)[C@@H](C)CC [Compound 18, Ile10-teixobactin]	1 (≈ 0.832 µM)	0.125 (≈ 0.104 µM)	≤0.0625	0.125 (≈ 0.104 µM)	–
